From patent publication US5256528A, “Magenta image-dye couplers of improved hue” (Eastman Kodak Company, priority 1992, dated 1993)

Assays:
[1] = Continued coupling in bleach, delta Dmin process B - process A; conditions: Table VI
Procedure: (§1) Dispersions of the coupler B3 were prepared with coupler solvents S1 and C2, both at a 1:1 B3:coupler solvent weight ratio. Dispersions of coupler M1 were prepared with C2 at 1:1 and with C2 plus aniline A1 at a 1:0.8:0.2 M1:C2:A1 weight ratio. These dispersions were prepared by dissolving the coupler in a mixture of coupler solvent, aniline A1 (optional) and cyclohexanone. The coupler:cyclohexanone weight ratio was 1:3. This mixture was then added to an aqueous solution of gelatin and ALKANOL XC surfactant. The two-phase mixture was then passed through a colloid mill to disperse the coupler-containing oil phase in the aqueous phase in the form of small droplets. The dispersion was then chilled, noodled and washed to remove the auxiliary cyclohexanone solvent. The resulting dispersions contained approximately 2% by weight of coupler and 6% by weight of gelatin.
(§2) The dispersions were then coated on a transparent support together with a silver bromoiodide emulsion in the format shown below. Coatings were then exposed through a stepwedge and subjected to variants of the KODAK FLEXICOLOR (C-41) process described below. One set of film samples was processed with an acetic acid stop bath between the development and bleach steps (process A). A second set of films was processed without a stop bath and with the bleach pH adjusted to 6.0 instead of the normal 5.25 (process B). This is intended to simulate behavior in a "seasoned" bleach whose pH increases due to carry-over of base from the developer solution. The difference between Dmin values (densities obtained in unexposed portions of the films) between process A and process B are due to continued coupling between coupler and developer carried over into the bleach. Both the lack of a stop bath and the high bleach pH in process B aggravate continued coupling. It is desirable to minimize Dmin density and Dmin variability due to continued coupling. Since conditions similar to process B are encountered in simplified trade processing, it is desirable to minimize continued coupling, as measured by the delta Dmin of process B - process A. These delta Dmin values are listed in Table VI along with λmax values and gamma values (obtained from plots of status M green density versus exposure).
(§3) 2.6 g/sq m Gelatin + 1.75 weight % BVSME* Hardener
(§4) Coupler Solvent + or - A1 @ equal weight to coupler
(§5) 1.08 g/sq m Silver Emulsion
(§6) //////Cellulose Acetate Butyrate Support//////
or Standard C-41 Bleach II
2B Bleach II Adjusted to pH = 6.0
(§7) Also included in this comparison was a 1:1 dispersion of M1 plus C2 to which was added the DIR coupler D1 (shown above) at a M1:D1 weight ratio of 1:0.045.

[2] = Formaldehyde exposure test (loss of dye density obtainable on processing); conditions: Table II, Example 3; 48 hr formaldehyde exposure, 60% RH; relative to water-glycerol only
Text: Prior examples of 3-anilino-1-phenyl-5-pyrazolone couplers that yield bathochromic dyes have been limited to four-equivalent couplers or to couplers with coupling-off groups other than arylthio or alkylthio groups. The four-equivalent couplers are not suitable for the practice of this invention because of their high propensity to react with formaldehyde or other hardeners. This can be illustrated by exposing coupler-containing films to formaldehyde and noting the changes in the dye density obtainable upon photographic processing. To obtain the data in Table II one set of film strips was suspended in a light-tight tank over a beaker containing 10 g of formaldehyde, and a solution of 14 g of water and 36 g of glycerol (60% RH) for 48 hr. A second set of strips was suspended for 48 hr over a water-glycerol solution without the beaker of formaldehyde. The strips were then exposed through a stepwedge, process (C-41) and the densities were measured. Values of the percent reduction in (Dmax-Dmin) for the samples exposed to formaldehyde relative to the samples exposed to water-glycerol only were determined.
Coatings of B8,B9 and M1 prepared as described in Example 2 were subjected to the formaldehyde test.

[3] = Absorption spectra of dye-containing processed films (λmax), C-41 process; type: physicochemical; conditions: coupler:S1 1:0.5
Procedure: (§8) Dispersions of the comparative couplers B1-B3 and B8 and of the couplers of this invention M1-M3 were prepared by dissolving the coupler in the coupler solvent S1 plus the auxiliary solvent 2-(2-butoxyethoxy)ethyl acetate and then dispersing this oil phase in an aqueous solution of gelatin and surfactant using an ultrasonic probe. The dispersions were chilled and washed for 6 hr at 4° C. to remove the auxiliary solvent. The dispersions contained approximately 8.8% coupler, 4.4% S1 and 6% gelatin by weight.
(§9) The dispersions were coated at 1.04 mmole/sq m together with a silver bromoiodide emulsion on a transparent acetate support in the format shown below. Hardened film strips were exposed through a 0-4 neutral density stepwedge and daylight V and WRATTEN 9 filters and subjected to a standard C-41 process at 37.8° C. The process consists of 2.5 min in color developer, 4 min in a ferric EDTA/PDTA bleach solution, 2 min wash, 4 min fix and 2 min final wash. Photographic gamma values were obtained from the slopes of plots of status M green density vs. exposure for processed samples. Absorption spectra of the dye-containing processed films were measured at a density near 1.0 on a spectrophotometer and the wavelengths of maximum absorption (λ max values) were recorded.
(§10) BVSM* Hardener 0.06 g/sq m
(§11) Coupler Solvent S1 1/2 coupler laydown
(§12) Dispersions of couplers B3, M1 and M5 with S1 (1:0.5) were prepared and coated as in Example 2. Film strips of these coatings were exposed, processed and analyzed as in Example 2. λmax values and gamma values associated with these film compositions are listed in Table III. This series further illustrates the use of electron-withdrawing substituents to obtain magenta dyes of the proper hue.
(§13) Dispersions of the comparative couplers B4, B5 and B8 and the couplers of this invention M6-M11 were prepared and coated as in Example 2. The coupler solvent S1 was again used at a 1:0.5 coupler:S1 weight ratio. Film strips of the hardened coatings were exposed, processed and analyzed as in Example 2. Couplers B4 and M6-M8 have a strongly electron-withdrawing alkoxycarbonyl substituent in the R2 position and couplers B5 and M9-M11 have a strongly electron-withdrawing alkylsulfonyl group at R2. […] The couplers of this invention, M6-M11, which have strong electron-withdrawing groups in each ring, yield dyes having the desired bathochromic hues, as shown by the λmax values. The gamma values obtained with the couplers of this invention are suitably high to be useful in photographic materials, as indicated by comparison to the gamma obtained from the commercial coupler B8.
(§14) Dispersions of the comparison couplers B6 and B7, and of the couplers of this invention M12-M17, were prepared using the coupler solvent Sl as in Example 2. These were coated as in Example 2, and hardened film strips were exposed, processed and analyzed as in Example 2. The results obtained are summarized in Table V. In this example all of the couplers have sulfamoyl or alkylsulfonyl substituents in the R1 position and the R2 substituent on the 3-anilino ring is varied. Comparative couplers B6 and B7 have chloro substituents at R2, whereas M12-M17 of this invention have strong electron withdrawing R2 groups. […] The gamma values of the couplers of this invention are similar to those of the comparative couplers.

[4] = Photographic gamma (slope of status M green density vs. exposure), C-41 process; conditions: coupler:S1 1:0.5
Procedure: as §8, §9, §10, §11, §12, §13, §14

[5] = λmax with coupler solvents and addenda (KODAK FLEXICOLOR C-41 variants); type: physicochemical; conditions: Table VI
Procedure: as §1, §2, §3, §4, §5, §6, §7

[6] = Photographic gamma with coupler solvents and addenda (KODAK FLEXICOLOR C-41 variants); conditions: Table VI; C2(0.8), aniline A1(0.2), no DIR coupler
Procedure: as §1
as §2, with “Both the lack of a stop bath and the high bleach pH in process B aggravate continued coupling. It is desirable to minimize Dmin density and Dmin variability due to continued coupling.” left out, “exposure). […]” for “exposure).”

[7] = Unwanted blue light absorption of magenta dye in film (absorption spectra, FIGURE); type: physicochemical; conditions: relative to dye derived from comparative coupler B5
Procedure: as §9
Dispersions of the comparative couplers B4, B5 and B8 and the couplers of this invention M6-M11 were prepared and coated as in Example 2. The coupler solvent S1 was again used at a 1:0.5 coupler:S1 weight ratio. Film strips of the hardened coatings were exposed, processed and analyzed as in Example 2. Couplers B4 and M6-M8 have a strongly electron-withdrawing alkoxycarbonyl substituent in the R2 position and couplers B5 and M9-M11 have a strongly electron-withdrawing alkylsulfonyl group at R2. […]

[8] = C2(0.8), aniline A1(0.2), no DIR coupler
[9] = C2(1.0), no aniline, DIR coupler D1(0.045)
[10] = C2(1.0), no aniline, no DIR coupler

Compound | Delta Dmin Process B-A [1, 8] | Delta Dmin Process B-A [1, 9] | Delta Dmin Process B-A [1, 10] | % Density Loss after Formaldehyde Exposure [2] | λmax(nm) (+-0.5) ([3]; Table I, Example 2) | Gamma ([4]; Table III, Example 4) | λmax(nm) [5, 8] | λmax(nm) [5, 9] | λmax(nm) [5, 10] | Gamma [6] | λmax(nm) (+-0.5) ([3]; Table IV, Example 5) | unwanted blue light absorption at 480 nm [7] | Gamma ([4]; Table IV, Example 5)
CCCCCCCCCCCCNS(=O)(=O)c1ccc(NC2=NN(c3c(Cl)cc(S(=O)(=O)N4CCOCC4)cc3Cl)C(=O)C2Sc2cc(C(C)(C)CC(C)(C)C)ccc2OCCCC)c(Cl)c1 (stereo not shown) [Coupler M1] | 0.040 | 0.088 | 0.073 | 3% | 550.5 nm | 4.4 | 549 nm | 549 nm | 549 nm | 1.83 | – | – | –
CCCCCCCCCCCCS(=O)(=O)c1ccc(NC2=NN(c3c(Cl)cc(C#N)cc3Cl)C(=O)C2Sc2cc(C(C)(C)CC(C)(C)C)ccc2OCCCC)c(Cl)c1 (stereo not shown) [Coupler M11] | – | – | – | – | – | – | – | – | – | – | 551.0 nm | less unwanted blue light absorption at 480 nm | 3.3
